The series can be described thus: in vitro. The following applies: human, plasma.

Residues, ends and D or L forms follow the SMILES beside them.

One may read the fraction unbound as free concentration divided by total concentration. Low values mean extensive binding, high ones weak binding. On to `Cc1cnc(Nc2nc(N[C@@H](C)c3ncc(F)cn3)nc(N3CCOCC3)c2F)s1`, for which the fraction unbound at 5 h (PPB) was 0.069.

As to `Cc1sc2c(c1C)c(=O)n(-c1ccc(F)cc1)c(=O)n2CC(=O)NCc1ccco1`, the unbound share (fraction unbound) at 5 h (PPB) was 0.0268.

Under “PPB”, `COCCC(Oc1ncnc2c1cnn2-c1ccccc1OC)C(=O)Nc1ccc(C)cn1` (centres undefined) showed a free fraction (fraction unbound) at 5 h of 0.139.

Under “PPB”, `COCCNC(=O)c1ccc(Nc2ncc3cc(-c4ccncc4C)ccc3n2)cc1` gave a fraction unbound at 5 h of 0.0139.

For the setting “PPB”, `CC(NCCC(c1ccccc1)c1ccccc1)c1ccccc1` (centres undefined) [FENDILINE] had a fraction unbound at 5 h of 0.0116.

With `Cc1cc(-c2cc(=O)[nH]c(NCc3cccc4ccccc34)n2)ccn1`, under “PPB”, the fraction unbound at 5 h is 0.0025.

Consider `C[C@H](CO)Nc1nc(SCc2cccc(F)c2F)nc2[nH]ncc12`, for which, where the note is “PPB”, the unbound share (fraction unbound) at 5 h was 0.035.

In turn, `COc1cc(OC)c(S(=O)(=O)N2c3ccccc3CC2C)cc1NC(C)=O` (centres undefined) showed a free fraction (fraction unbound) at 5 h (PPB) of 0.0437.

Where the note is “PPB”, `CCOc1cc2ncc(C(N)=O)c(Nc3cccc(Cl)c3Cl)c2cc1N1CCN(CCOC)CC1` gave a fraction unbound at 5 h of 0.0171.

`CCNC(=O)c1cc2c(-n3ccc(C(F)(F)F)n3)c(-c3cncc(C(=O)O)c3)cnc2[nH]1`: the fraction unbound at 5 h (PPB) was 0.117.

`COc1ccc(-c2nc3c(NCCCNC(=O)c4cccnc4)c(Br)cnc3[nH]2)cc1` gave a fraction unbound at 5 h (PPB) of 0.013.

Turning to `COc1ccc(-c2cc(O)nc(N)n2)cc1C#N`, the fraction unbound at 5 h (PPB) is 0.126.

With `COc1cc(OC)c(S(=O)(=O)N2c3ccccc3CCC2C)cc1NC(=O)CSc1ccncc1` (centres undefined), the free fraction (fraction unbound) at 5 h (PPB) is 0.0293.

Compound `Cc1cn([C@H]2CCCN(S(=O)(=O)c3cccc(Oc4ccccc4)c3)C2)c(=O)[nH]c1=O` gave a free fraction (fraction unbound) at 5 h (PPB) of 0.0262.

For `NC(=O)[C@H](Cc1ccccc1)NC(=O)OCc1ccccc1`, where the note is “PPB”, the free fraction (fraction unbound) at 5 h was 0.19.

For `C[C@H](Nc1ncc(Cl)c(Nc2cc(C3CC3)[nH]n2)n1)c1ncc(F)cn1`, the fraction unbound at 5 h (PPB) is 0.0568.

Where the note is “PPB”, `CCCC[C@H](NC(C)=O)C(=O)N[C@H]1CC(=O)NCCCC[C@@H](C(=O)O)NC(=O)[C@H](Cc2c[nH]c3ccccc23)NC(=O)[C@H](CCCN=C(N)N)NC(=O)[C@@H](Cc2ccccc2)NC(=O)[C@H](Cc2cnc[nH]2)NC1=O` [BREMELANOTIDE] showed a fraction unbound at 5 h of 0.729.

For the compound `COc1ccc(N(C(=O)c2ccccc2)C(C(=O)NC2CCCC2)c2ccccc2F)c(OC)c1` (centres undefined), the fraction unbound at 5 h (PPB) was 0.0033.

As for `CC(C)c1ccc(/C=N/NC(=O)c2ccc(O)cc2)cc1`, under “PPB”, the unbound share (fraction unbound) at 5 h was 0.0568.

`COCCNC(=O)c1ccc(Nc2ncc3cc(-c4cnccc4C)ccc3n2)cc1` gave a fraction unbound at 5 h (PPB) of 0.0262.

Where the note is “PPB”, `O=C(Nc1ccccc1-c1cn2c(CN3CCNCC3)csc2n1)c1cnc2ccccc2n1` gave a fraction unbound at 5 h of 0.0099.

On to `COc1cccc(OC)c1OCCNCC1COc2ccccc2O1` (centres undefined), for which, under “PPB”, the fraction unbound at 5 h was 0.024.

As for `CC(=O)Nc1ccc2c(c1)N(c1cc(NC3CC3)n3ncc(C#N)c3n1)CCO2`, under “PPB”, the fraction unbound at 5 h is 0.0752.

For `CN[C@@H](C)C(=O)N[C@H](C(=O)N[C@H]1CCN(CCCc2ccccc2)C1)C1CCCCC1`, the fraction unbound at 5 h (PPB) is 0.36.

`O=c1[nH]cnc2scc(-c3cccs3)c12` showed a fraction unbound at 5 h (PPB) of 0.0111.

The compound `O[C@H](c1cc(C(F)(F)F)nc2c(C(F)(F)F)cccc12)[C@@H]1CCCCN1` [(R,S)-MEFLOQUINE] showed a fraction unbound at 5 h (PPB) of 0.0214.

In the case of `COc1ccc2ncc(=O)n(CCN3CC[C@@H](NCc4cc5c(cn4)OCCO5)[C@@H](O)C3)c2c1`, the free fraction (fraction unbound) at 5 h (PPB) was 0.142.

`CN1CCN(C(=O)c2cc(Cc3n[nH]c(=O)c4ccccc34)ccc2F)CC1`: the unbound share (fraction unbound) at 5 h (PPB) was 0.289.

As for `CCCCCCCC(=O)N[C@@H](CCN)C(=O)N[C@H](C(=O)N[C@@H](C)C(=O)N[C@H]1CCNC(=O)[C@H]([C@@H](C)O)NC(=O)[C@H](CCN)NC(=O)[C@H](CCN)NC(=O)[C@H](CC(C)C)NC(=O)[C@@H](Cc2ccccc2)NC(=O)[C@H](CCN)NC1=O)[C@@H](C)O` (HELM PEPTIDE1{[CCCCCCCC(=O)[*:2]].[Dab].T.A.[Dab].[Dab].[dF].L.[Dab].[Dab].T}$PEPTIDE1,PEPTIDE1,5:R3-11:R2$$$V2.0), where the note is “PPB”, the fraction unbound at 5 h was 0.112.

For `NS(=O)(=O)c1ccc(N2N=C(c3ccc(Br)cc3)CC2c2ccc(F)cc2)cc1` (centres undefined), the fraction unbound at 5 h (PPB) is 0.105.

In turn, `CCOC(=O)[C@H](CCc1ccccc1)N[C@@H](C)C(=O)N1Cc2ccccc2C[C@H]1C(=O)O` had an unbound share (fraction unbound) at 5 h (PPB) of 0.0418.

With `Cc1ccc(CNC(=O)CCS(=O)(=O)c2ccc(Br)cc2)cc1`, the fraction unbound at 5 h is 0.013.

The compound `Nc1ccc(S(=O)(=O)Nc2ccnn2-c2ccccc2)cc1` [SULFAPHENAZOLE] had an unbound share (fraction unbound) at 5 h (PPB) of 0.0059.

The compound `O=C(O)COc1ccccc1N1CCC(CN2CCC(Oc3ccc(Cl)c(Cl)c3)CC2)CC1` gave a fraction unbound at 5 h (PPB) of 0.0114.

In the case of `COc1cc(OC)c(S(=O)(=O)NCc2ccccc2N2CCC(C(=O)O)CC2)cc1NC(=O)CCC(=O)O`, the fraction unbound at 5 h (PPB) is 0.194.

On to `Cc1ncc(NC(=O)c2cc(NC(=O)c3cc(F)cc(C(F)(F)F)c3)ccc2Cl)s1`, for which, where the note is “PPB”, the fraction unbound at 5 h is 0.0035.

Under “PPB”, `CCNC(=O)c1cc2c(-n3ccc(C(F)(F)F)n3)c(-c3cncc(C(N)=O)c3)cnc2[nH]1` gave a free fraction (fraction unbound) at 5 h of 0.36.

Where the note is “PPB”, `COc1cc(OC)c(S(=O)(=O)N2c3ccccc3Oc3ccccc32)cc1NC(=O)/C=C/C(=O)O` had a fraction unbound at 5 h of 0.024.

On to `O=C(Nc1ccc(Cl)c(C(=O)Nc2cncs2)c1)c1cccc(Cl)c1`, for which the unbound share (fraction unbound) at 5 h (PPB) was 0.002.

In the case of `CCNC(=O)c1cc2c(-n3ccc(C(F)(F)F)n3)c(-c3cncc(-c4n[nH]c(=O)o4)c3)cnc2[nH]1`, the unbound share (fraction unbound) at 5 h (PPB) was 0.0437.

`COc1cc(OC)c(S(=O)(=O)N2c3ccccc3CCC2C)cc1NC(=O)CCc1nn[nH]n1` (centres undefined) gave a free fraction (fraction unbound) at 5 h (PPB) of 0.0647.

Take `O=C(NCC12CC3CC(CC(C3)C1)C2)c1cc(OCCNCCCO)ncc1Cl`: the free fraction (fraction unbound) at 5 h (PPB) was 0.11.

For the setting “PPB”, `CCOc1cc2ncc(C(N)=O)c(Nc3cccc(Cl)c3Cl)c2cc1N1CCN(C(C)=O)CC1` gave a fraction unbound at 5 h of 0.0968.

Take `COc1cc(OC)c(S(=O)(=O)N2c3ccccc3CCC2C)cc1NC(=S)NCC(=O)O` (centres undefined): the fraction unbound at 5 h (PPB) is 0.309.

The compound `COc1cc2ncc(C(N)=O)c(Nc3cccc(Cl)c3Cl)c2cc1NCCN1CCCCC1` gave a fraction unbound at 5 h (PPB) of 0.0209.

For the setting “PPB”, `CCOc1cc2ncc(C(N)=O)c(Nc3ccc(F)cc3F)c2cc1N1CCN(CC)CC1` gave an unbound share (fraction unbound) at 5 h of 0.0457.

Regarding `CN(CC(=O)O)NC(=O)C[C@H](N)C[C@@H](O)CN` [NEGAMYCIN], the fraction unbound at 5 h (PPB) was 0.874.

Turning to `COc1cc(OC)c(S(=O)(=O)NCc2ccccc2N2CCC(COC(=O)CCC(=O)O)CC2)cc1NC(=O)CCC(=O)O`, for the setting “PPB”, the free fraction (fraction unbound) at 5 h was 0.151.

`O=C(NCC12CC3CC(CC(C3)C1)C2)c1cc(C(=O)N2CC3CNCC(C2)O3)ccc1Cl` gave a fraction unbound at 5 h (PPB) of 0.309.

In turn, `O=C(Nc1ccc(Cl)cc1)Nc1nnc(-c2ccncc2)s1` gave a fraction unbound at 5 h (PPB) of 0.0017.

Regarding `Cc1cccc(Nc2nc(NCc3ccco3)c3ccccc3n2)c1`, the unbound share (fraction unbound) at 5 h (PPB) is 0.0007.

As for `COc1ccc(S(=O)(=O)N2CCC[C@H](n3cc(C)c(=O)[nH]c3=O)C2)cc1Oc1cccc(Cl)c1`, the unbound share (fraction unbound) at 5 h (PPB) is 0.0251.

On to `Cc1cc(Nc2nc(N[C@@H](C)c3ncc(F)cn3)nc(N3CCOCC3)c2F)n[nH]1`, for which the fraction unbound at 5 h (PPB) was 0.0836.

Where the note is “PPB”, `COc1ccc(-c2nc3ccc(C4=NNC(=O)CC4C)cc3[nH]2)cc1` (centres undefined) [PIMOBENDAN] had a fraction unbound at 5 h of 0.11.

Consider `CC(C)(C)COc1ccc(-n2cc(C(=O)O)cn2)cc1C#N`, for which the unbound share (fraction unbound) at 5 h (PPB) is 0.0224.

For `COc1cc(/C=C2\SC(=O)NC2=O)ccc1Oc1ccc(C#N)cc1C(F)(F)F`, the fraction unbound at 5 h is 0.0005.

`CN(C)CCNc1cc(-c2ccncc2)nc2ccccc12`: the free fraction (fraction unbound) at 5 h (PPB) is 0.142.

With `O=C(/C=C/c1ccccc1Cl)Nc1ccc2c(c1)C(=O)NC2=O`, the fraction unbound at 5 h (PPB) is 0.0948.

As for `O=C(Nc1cccc2cccnc12)c1ccc(N2C(=O)[C@@H]3[C@H](C2=O)[C@@H]2C=C[C@H]3C2)cc1`, the fraction unbound at 5 h (PPB) is 0.0111.

The compound `O=C(O)/C=C/c1cccc(-c2cnc3[nH]ccc3c2)c1` gave a fraction unbound at 5 h (PPB) of 0.0219.

`COc1ccc(OC)c(C(O)CN)c1` (centres undefined) [DESGLYMIDODRINE] had a fraction unbound at 5 h of 0.78.

Compound `CCc1[nH]c2nc(Sc3cnc4ccc[n+]([O-])c4c3)nc(N3CC[C@@H](N)C3)c2c1Cl` had an unbound share (fraction unbound) at 5 h (PPB) of 0.204.

`O=c1cc(N2CCOCC2)nc2n(Cc3cccc(F)c3)ccn12`: under “PPB”, the fraction unbound at 5 h is 0.22.

Where the note is “PPB”, `O=C(CCS(=O)(=O)c1ccc(Br)cc1)NCCc1ccccc1` showed a fraction unbound at 5 h of 0.04.

Where the note is “PPB”, `CC(C)Oc1cc2ncc(C(N)=O)c(Nc3ccc(F)cc3F)c2cc1N1CCN(C)CC1` had an unbound share (fraction unbound) at 5 h of 0.0171.

`CC(C)(C)c1ccc2c(c1)CC[C@H]2NC(=O)Nc1cccc2[nH]ncc12` [ABT-102] showed an unbound share (fraction unbound) at 5 h (PPB) of 0.0022.

Compound `COCCOc1cc2ncc(C(N)=O)c(Nc3cccc(Cl)c3F)c2cc1N1CCN(C)CC1` had a fraction unbound at 5 h (PPB) of 0.392.

`COc1cc(OC)c(S(=O)(=O)NCc2ccccc2N2CCC(CO)CC2)cc1NC(C)=O` had a fraction unbound at 5 h (PPB) of 0.126.

As for `N#Cc1c(-c2ccc(-c3cccnc3)cc2)nc2ccncc2c1O`, the fraction unbound at 5 h (PPB) is 0.007.

Compound `Cc1ncc(NC(=O)c2cc(NC(=O)c3cccc(C(F)(F)F)c3)ccc2Cl)s1` gave a fraction unbound at 5 h (PPB) of 0.004.

The compound `CC(C)Oc1cc2ncc(C(N)=O)c(Nc3ccc(Cl)c(Cl)c3)c2cc1N1CCN(C)CC1` showed an unbound share (fraction unbound) at 5 h (PPB) of 0.0099.

`O=C(Nc1ccc(CCO)cc1)c1cc2cc(Cl)ccc2[nH]1` gave a fraction unbound at 5 h (PPB) of 0.0139.

As to `Cc1csc(NC(=O)COc2ncnc3c2cnn3-c2ccccc2Cl)n1`, the fraction unbound at 5 h (PPB) was 0.0082.

Regarding `CCOC(=O)[C@H](CCc1ccccc1)N[C@H]1CCc2ccccc2N(CC(=O)O)C1=O` [BENAZEPRIL], the fraction unbound at 5 h (PPB) is 0.0409.

In turn, `CCOc1cc2ncc(C(N)=O)c(Nc3ccc(F)cc3F)c2cc1N1CCCN(C)CC1` had a fraction unbound at 5 h (PPB) of 0.304.

In the case of `CN[C@@H](C)C(=O)N[C@H](C(=O)N[C@H]1CCCN(CCc2ccc(Cl)cc2)C1)C(C)(C)C`, the free fraction (fraction unbound) at 5 h (PPB) was 0.0293.

On to `COCCOc1cc2ncc(C(N)=O)c(Nc3cc(C)ccc3F)c2cc1N1CCN(C)CC1`, for which the free fraction (fraction unbound) at 5 h (PPB) was 0.163.

Regarding `CC(=O)NCc1cccc(C(=O)O)c1`, where the note is “PPB”, the unbound share (fraction unbound) at 5 h is 0.17.

Compound `COc1ccc2c(c1O)-c1cccc3c1[C@@H](C2)N(C)CC3` [APOCIDEINE] gave a fraction unbound at 5 h of 0.062.

(Values after ChEMBL document CHEMBL3301361, “Experimental in vitro DMPK and physicochemical data on a set of publicly disclosed compounds”.)
